Test results published in patent publication US20250195687A1, “PEPTIDE-BASED PHOSPHATE BINDER FOR THE TREATMENT OF HYPERPHOSPHATEMIA” (B. G. NEGEV TECHNOLOGIES AND APPLICATIONS LTD., priority 2022, published 2025).

What was measured:
[1] = Colorimetric (molybdenum blue) phosphate binding in intestinal and gastric fluid simulants; conditions: pH=6 or pH=7.5 (clinical PhB at pH=7.5)
Text: The binding efficiency of the SiO2-CysHex particles in intestinal and digestive fluid simulants was examined by a colorimetric method. The procedure was based on the determination of the amount of uncaptured phosphate from a solution of known initial phosphate concentration. A spectrophotometric assay referred to as the molybdenum blue reaction was employed. It emits a blue color whose intensity is linearly proportional to the amount of phosphate present in the solution allowing by measurement of color intensity and proper calibration, to determine phosphate concentration. The reaction involves the following two steps: • 1. PO4^3−+12(NH4)2MoO4+24H^+→(NH4)3PO4·12MoO3+21NH4^++12H2O • 2. […]
For this experiment, a phosphate assay kit (Sigma-Aldrich) with a stated concentration range between 0.005 mM and 0.025 mM phosphate was used. The kit included a 10 mM phosphate standard solution and a coloring reagent that reacts with phosphates to form a complex that could be measured and quantified by UV-VIS absorbance spectroscopy. The phosphate standard was used to prepare a calibration curve between the absorbance intensity at a wavelength of 650 nm and phosphate concentrations. […]
A volume of 20 μL of the supernatant filtrate (sec 4.3.3.1.2), 180 μL DI water, and 30 μL coloring reagent were added to a 96 well plate. Two duplicates of each sample were measured, and the resulting values were averaged. […]

[2] = 31P NMR phospholipid peak widening by free peptide in FES solution; format: binding
Text: ^31P NMR-NMR relaxation is the process by which excited magnetic state nuclei return to their equilibrium distribution. At the start of an NMR experiment, the nuclei are “lined up” with the external magnetic field. When an electromagnetic RF field is activated on these nuclei, they resonate at a characteristic resonance frequency, and the NMR signal is created. At that instant, all the nuclei are in phase and coherent. However, due to small differences in their resonance frequencies, they will begin to dephase. The time it takes for the nuclei to dephase is measured by T2 the so-called spin-spin relaxation time. T2 is inversely proportional to Δω, the width of the resonance peak in the spectra measured at half the maximum height: Δω=2/T2. The more slowly a macromolecule tumbles, the shorter its T2; thus, big molecules have broader resonance peaks than small molecules. An increase in molecular size due to interaction or reduced mobility affects the T2 relaxation time and is manifested by widening the NMR signal. […]
The first sample used for FES solution reference was composed of 1 mL FES solution which was placed in a 1.5 mL Eppendorf tube. […] The pH was measured using a pH electrode (Mettler Toledo, SevenComplex) and adjusted to the desired value by dropwise addition of HCl or NaOH solutions. […] The contents of each Eppendorf tube were analyzed separately by NMR as described below.
Solution ^31P NMR data were collected on a Bruker Avance III 400 MHz spectrometer (Bruker BioSpin, Germany). […] A capillary tube insert filled with phosphoric acid solution in D2O (10% v/v phosphoric acid in D2O/H2O) was used for calibration and inserted into the NMR tube that contained the measured sample. […] NMR data was analyzed using TopSpin software (Bruker).
The capability of a free unbound peptide to capture phosphate in the intestinal simulant solutions was examined using P NMR. […] As discussed above, binding is qualitatively evaluated by the decrease in T2 relaxation, or the corresponding widening of the peak associated with the phosphorus nuclei in the molecule and calculated as follows: […]

[3] = 31P NMR phosphate peak widening by free peptide in intestinal fluid simulants; format: binding; conditions: for phosphate peak widening: peptide 13.1 mM, phosphate 2.6 mM
Text: ^31P NMR-NMR relaxation is the process by which excited magnetic state nuclei return to their equilibrium distribution. At the start of an NMR experiment, the nuclei are “lined up” with the external magnetic field. When an electromagnetic RF field is activated on these nuclei, they resonate at a characteristic resonance frequency, and the NMR signal is created. At that instant, all the nuclei are in phase and coherent. However, due to small differences in their resonance frequencies, they will begin to dephase. The time it takes for the nuclei to dephase is measured by T2 the so-called spin-spin relaxation time. T2 is inversely proportional to Δω, the width of the resonance peak in the spectra measured at half the maximum height: Δω=2/T2. The more slowly a macromolecule tumbles, the shorter its T2; thus, big molecules have broader resonance peaks than small molecules. An increase in molecular size due to interaction or reduced mobility affects the T2 relaxation time and is manifested by widening the NMR signal.
In this study, phosphate-binding experiments of free (unattached to silica) peptides in intestinal fluid simulants as function of the surrounding pH were examined. Binding was determined by the widening of the relevant phosphate peaks in phosphorus NMR (^31P NMR) spectra. These experiments aimed to investigate the effect of the background solution containing many components on the ability of the peptide to bind phosphate. ^31P NMR experiments were preferred over standard ^1H NMR since in the former only one (phosphate) or at most two (phosphate and phospholipid) peaks are detected as opposed to the multitude of frequently overlapping, peaks in the spectra of the latter. […]
Samples were prepared by mixing the required amounts of phosphate stock solution, and FAS or FES solutions into one 1.5 mL Eppendorf tube, and phosphate stock, peptide stock, and FAS or FES solution into a second similar tube. in. The pH was measured and adjusted to the desired value as described above. […] The contents of each Eppendorf tube were analyzed separately by NMR as described below. […]

Row | Molecule | Phosphate binding effectiveness ([1]; FAS) | Phosphate binding effectiveness ([1]; FES) | pH of lowest phospholipid binding ([2]; absence of phosphate) | phospholipid binding ([2]; absence of phosphate, 6.5 peptide molecules per phospholipid molecule, entire relevant pH range) | phospholipid peak width (ratio) ([2]; pH=6, peptide 13.1 mM and phosphate 2.6 mM present, phospholipid 2 mM, average of three measurements) | phosphate peak widening ([3]; FAS solution) | phosphate peak widening ([3]; FES solution) | pH range in which the peptide captures phosphate ([3]; only in FES)
1 | O=C([O-])[O-].O=C([O-])[O-].O=C([O-])[O-].[La+3].[La+3] [Lanthanum, Lanthanum carbonate] | 4.1 mg phosphate/gr PhB | 0.9 mg phosphate/gr PhB | – | – | – | – | – | –
2 | Cys-SGAGKT [CysHex] | – | – | ~6 | binds the phospholipid quite effectively | 0.93±0.15 | no widening | pH dependent and is maximal at pH values commensurate with values in the GI tract | 7-8
